Three molecules from US20230226062A1, “HETEROCYCLIC COMPOUNDS AS IMMUNOMODULATORS” (Incyte Corporation, priority 2016, published 2023) can be followed below.

Structures are written as SMILES.

The target of this experiment is T1, PD-1/PD-L1 (Homo sapiens, UniProt Q9NZQ7).
T1 construct: Recombinant human PD-L1 protein (19-238) with a His-tag at the C-terminus; purchased AcroBiosystems PD1-H5229 (PD-L1); PD1-H5257 (PD-1)
T1 sequence (Q9NZQ7 19-238): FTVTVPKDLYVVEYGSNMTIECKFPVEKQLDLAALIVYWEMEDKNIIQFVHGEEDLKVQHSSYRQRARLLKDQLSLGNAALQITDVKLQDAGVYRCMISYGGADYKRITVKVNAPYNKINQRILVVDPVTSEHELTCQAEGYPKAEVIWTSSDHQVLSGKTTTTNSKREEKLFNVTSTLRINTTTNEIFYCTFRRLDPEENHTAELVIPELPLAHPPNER
Description: PD-1/PD-L1 Homogeneous Time-Resolved Fluorescence (HTRF) binding assay. The following applies: recombinant human PD-L1 (19-238)-His 10 nM, human PD-1 (25-167)-Fc 3 nM, 25° C., PBS pH 7.4. On the procedure: Example A. PD-1/PD-L1 Homogeneous Time-Resolved Fluorescence (HTRF) Binding Assay
The assays were conducted in a standard black 384-well polystyrene plate with a final volume of 20 μL. Inhibitors were first serially diluted in DMSO and then added to the plate wells before the addition of other reaction components. The final concentration of DMSO in the assay was 1%. The assays were carried out at 25° C. in the PBS buffer (pH 7.4) with 0.05% Tween-20 and 0.1% BSA. Recombinant human PD-L1 protein (19-238) with a His-tag at the C-terminus was purchased from AcroBiosystems (PD1-H5229). Recombinant human PD-1 protein (25-167) with Fc tag at the C-terminus was also purchased from AcroBiosystems (PD1-H5257). PD-L1 and PD-1 proteins were diluted in the assay buffer and 10 μL was added to the plate well. Plates were centrifuged and proteins were preincubated with inhibitors for 40 minutes. The incubation was followed by the addition of 10 μL of HTRF detection buffer supplemented with Europium cryptate-labeled anti-human IgG (PerkinElmer-AD0212) specific for Fc and anti-His antibody conjugated to SureLight®-Allophycocyanin (APC, PerkinElmer-AD0059H). After centrifugation, the plate was incubated at 25° C. for 60 min. before reading on a PHERAstar FS plate reader (665 nm/620 nm ratio). Final concentrations in the assay were—3 nM PD1, 10 nM PD-L1, 1 nM europium anti-human IgG and 20 nM anti-His-Allophycocyanin. IC50 determination was performed by fitting the curve of percent control activity versus the log of the inhibitor concentration using the GraphPad Prism 5.0 software.
For orientation: Time-resolved FRET reads energy transfer from a long-lived donor to a nearby acceptor.
One may read the IC50 as the concentration that inhibits the measured activity by half. In the case of `CCN(C)CC(=O)N1Cc2nc(-c3cccc(-c4cccc(N5CCn6cncc6C5)c4C)c3C)sc2C1` [Example 38, 1-(2-(3′-(5,6-dihydroimidazo[1,5-a]pyrazin-7(8H)-yl)-2,2′-dimethylbiphenyl-3-yl)-4H-pyrrolo[3,4-d]thiazol-5(6H)-yl)-2-(ethyl(methyl)amino)ethanone], the half-maximal inhibitory concentration (IC50) fell in the range of 10 to 100 nM. Then `COc1cccc(-c2cccc(Nc3ncccc3C(=O)NCCNCCO)c2C)c1F` [Example 39, 2-(2′-fluoro-3′-methoxy-2-methylbiphenyl-3-ylamino)-N-(2-(2-hydroxyethylamino)ethyl)nicotinamide], with 100 to 1000 nM. In the case of `OCCNCc1ccc(CN2CCc3c(-c4ccccc4)cccc32)c(Cl)c1` [Example 40, 2-({3-chloro-4-[(4-phenyl-2,3-dihydro-1H-indol-1-yl)methyl]benzyl}amino)ethanol], the IC50 fell in the range of 100 to 1000 nM.
